Experimental data: patent US8558002B2, “Sulfoximines as kinase inhibitors” (Allergan, Inc., priority 2006, dated 2013)

Experiments:
VEGFR2 [1] = target: T1, VEGFR2 (Homo sapiens, UniProt P35968); assay: VEGFR2 Kinase Assay (biochemical KDR kinase, poly-Glu-Tyr ELISA); set-up: 200-300 ng purified cytoplasmic domain KDR protein; purchased BPS Bioscience; settings: purified cytoplasmic domain KDR protein, 2.7 μM ATP
Method: Biochemical KDR kinase assays were performed in 96 well microtiter plates that were coated overnight with 75 μg/well of poly-Glu-Tyr (4:1) in 10 mM Phosphate Buffered Saline (PBS), pH 7.4. The coated plates were washed with 2 mls per well PBS+0.05% Tween-20 (PBS-T), blocked by incubation with PBS containing 1% BSA, then washed with 2 mls per well PBS-T prior to starting the reaction. Reactions were carried out in […] reaction volumes containing 2.7 μM ATP in kinase buffer (50 mM Hepes buffer pH 7.4, 20 mM MgCl2, 0.1 mM MnCl2 and 0.2 mM Na3VO4). Test compounds were reconstituted in 100% DMSO and added to the reaction to give a final DMSO concentration of 5%. Reactions were initiated by the addition 20 ul per well of kinase buffer containing 200-300 ng purified cytoplasmic domain KDR protein (BPS Bioscience, San Diego, Calif.). Following a 15 minute incubation at 30° C., the reactions were washed 2 mls per well PBS-T. 100 μl of a monoclonal anti-phosphotyrosine antibody-peroxidase conjugate diluted 1:10,000 in PBS-T was added to the wells for 30 minutes. Following a 2 mls per well wash with PBS-Tween-20, 100 μl of O-Phenylenediamine Dihydrochloride in phosphate-citrate buffer, containing urea hydrogen peroxide, was added to the wells for 7-10 minutes as a colorimetric substrate for the peroxidase. The reaction was terminated by the addition of 100 μl of 2.5NH2SO4 to each well and read using a microplate ELISA reader set at 492 nm. IC50 values for compound inhibition were calculated directly from graphs of optical density (arbitrary units) versus compound concentration following subtraction of blank values.
Target sequence in this assay (P35968 786-1356 limits assumed): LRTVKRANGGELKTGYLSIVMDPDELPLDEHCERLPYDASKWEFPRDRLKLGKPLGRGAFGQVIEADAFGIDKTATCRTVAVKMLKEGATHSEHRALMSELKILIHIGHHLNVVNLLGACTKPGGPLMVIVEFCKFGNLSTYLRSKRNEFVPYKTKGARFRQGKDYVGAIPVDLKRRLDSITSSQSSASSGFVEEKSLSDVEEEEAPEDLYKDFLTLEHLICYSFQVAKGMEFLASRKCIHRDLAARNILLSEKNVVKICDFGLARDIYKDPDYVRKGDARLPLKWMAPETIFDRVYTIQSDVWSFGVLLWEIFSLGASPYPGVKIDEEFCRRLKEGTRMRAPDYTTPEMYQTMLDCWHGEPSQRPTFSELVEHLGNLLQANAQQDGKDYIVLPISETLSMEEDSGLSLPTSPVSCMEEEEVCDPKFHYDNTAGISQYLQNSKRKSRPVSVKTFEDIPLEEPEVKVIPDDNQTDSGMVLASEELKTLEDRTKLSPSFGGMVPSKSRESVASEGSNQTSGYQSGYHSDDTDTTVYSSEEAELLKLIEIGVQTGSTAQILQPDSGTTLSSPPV

PDGFRβ = target: T2, PDGFRβ (Homo sapiens, UniProt P09619); assay: PDGFRβ Kinase Assay (poly-Glu-Tyr ELISA); assay type: biochemical; settings: purified cytoplasmic domain PDGFR-b protein, 36 μM ATP
T2 construct: 200-300 ng purified cytoplasmic domain PDGFR-b protein (Millipore); purchased Millipore
T2 sequence (P09619 554-1106 limits assumed): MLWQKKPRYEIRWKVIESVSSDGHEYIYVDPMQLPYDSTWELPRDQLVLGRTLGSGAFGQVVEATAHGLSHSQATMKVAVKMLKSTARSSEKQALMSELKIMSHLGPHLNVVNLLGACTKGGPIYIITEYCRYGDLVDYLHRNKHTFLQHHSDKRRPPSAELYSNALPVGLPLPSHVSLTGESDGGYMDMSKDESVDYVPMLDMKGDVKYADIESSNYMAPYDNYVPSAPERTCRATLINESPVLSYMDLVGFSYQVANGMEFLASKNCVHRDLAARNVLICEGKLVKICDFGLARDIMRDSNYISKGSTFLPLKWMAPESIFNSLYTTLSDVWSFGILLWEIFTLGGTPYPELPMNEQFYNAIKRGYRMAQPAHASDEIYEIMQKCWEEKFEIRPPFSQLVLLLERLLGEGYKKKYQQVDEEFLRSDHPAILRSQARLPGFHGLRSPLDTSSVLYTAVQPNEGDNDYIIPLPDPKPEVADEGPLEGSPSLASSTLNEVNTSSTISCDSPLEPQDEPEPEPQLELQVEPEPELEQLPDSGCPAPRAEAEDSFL
Method: Biochemical PDGFRβ kinase assays were performed in 96 well microtiter plates that were coated overnight with 75 μg of poly-Glu-Tyr (4:1) in 10 mM Phosphate Buffered Saline (PBS), pH 7.4. The coated plates were washed with 2 mls per well PBS+0.05% Tween-20 (PBS-T), blocked by incubation with PBS containing 1% BSA, then washed with 2 mls per well PBS-T prior to starting the reaction. Reactions were carried out in 100 μL reaction volumes containing 36 μM ATP in kinase buffer (50 mM Hepes buffer pH 7.4, 20 mM MgCl2, 0.1 mM MnCl2 and 0.2 mM Na3VO4). Test compounds were reconstituted in 100% DMSO and added to the reaction to give a final DMSO concentration of 5%. Reactions were initiated by the addition 20 ul per well of kinase buffer containing 200-300 ng purified cytoplasmic domain PDGFR-b protein (Millipore). Following a 60 minute incubation at 30° C., the reactions were washed 2 mls per well PBS-T. […] of a monoclonal anti-phosphotyrosine antibody-peroxidase conjugate diluted 1:10,000 in PBS-T was added to the wells for 30 minutes. Following a 2 mls per well wash with PBS-Tween-20, 100 μl of O-Phenylenediamine Dihydrochloride in phosphate-citrate buffer, containing urea hydrogen peroxide, was added to the wells for 7-10 minutes as a colorimetric substrate for the peroxidase. The reaction was terminated by the addition of 100 μl of 2.5N H2SO4 to each well and read using a microplate ELISA reader set at 492 nm. IC50 values for compound inhibition were calculated directly from graphs of optical density (arbitrary units) versus compound concentration following subtraction of blank values.

VEGFR2 [2] = target: T1, VEGFR2; assay: VEGFR2 Cellular Assay (FLIPR, VEGF induced increases in intracellular calcium in HUVEC); assay type: cell-based; set-up: host or cells: HUVEC; settings: VEGF165 stimulation (10 ng/mL), Fluo-4
Method: Automated FLIPR (Fluorometric Imaging Plate Reader) technology was used to screen for inhibitors of VEGF induced increases in intracellular calcium levels in fluorescent dye loaded endothelial cells. HUVEC (human umbilical vein endothelial cells) (Clonetics) were seeded in 384-well fibronectin coated black-walled plates overnight @ 37° C./5% CO2. Cells were loaded with calcium indicator Fluo-4 for 45 minutes at 37° C. Cells were washed 2 times (El×405, Biotek Instruments) to remove extracellular dye. For screening, cells were pre-incubated with test agents for 30 minutes, at a single concentration (10 uM) or at concentrations ranging from 0.0001 to 10.0 uM followed by VEGF165 stimulation (10 ng/mL). Changes in fluorescence at 516 nm were measured simultaneously in all 384 wells using a cooled CCD camera. Data were generated by determining max-min fluorescence levels for unstimulated, stimulated, and drug treated samples. IC50 values for test compounds were calculated from % inhibition of VEGF stimulated responses in the absence of inhibitor.
Target sequence in this assay (P35968 20-1356): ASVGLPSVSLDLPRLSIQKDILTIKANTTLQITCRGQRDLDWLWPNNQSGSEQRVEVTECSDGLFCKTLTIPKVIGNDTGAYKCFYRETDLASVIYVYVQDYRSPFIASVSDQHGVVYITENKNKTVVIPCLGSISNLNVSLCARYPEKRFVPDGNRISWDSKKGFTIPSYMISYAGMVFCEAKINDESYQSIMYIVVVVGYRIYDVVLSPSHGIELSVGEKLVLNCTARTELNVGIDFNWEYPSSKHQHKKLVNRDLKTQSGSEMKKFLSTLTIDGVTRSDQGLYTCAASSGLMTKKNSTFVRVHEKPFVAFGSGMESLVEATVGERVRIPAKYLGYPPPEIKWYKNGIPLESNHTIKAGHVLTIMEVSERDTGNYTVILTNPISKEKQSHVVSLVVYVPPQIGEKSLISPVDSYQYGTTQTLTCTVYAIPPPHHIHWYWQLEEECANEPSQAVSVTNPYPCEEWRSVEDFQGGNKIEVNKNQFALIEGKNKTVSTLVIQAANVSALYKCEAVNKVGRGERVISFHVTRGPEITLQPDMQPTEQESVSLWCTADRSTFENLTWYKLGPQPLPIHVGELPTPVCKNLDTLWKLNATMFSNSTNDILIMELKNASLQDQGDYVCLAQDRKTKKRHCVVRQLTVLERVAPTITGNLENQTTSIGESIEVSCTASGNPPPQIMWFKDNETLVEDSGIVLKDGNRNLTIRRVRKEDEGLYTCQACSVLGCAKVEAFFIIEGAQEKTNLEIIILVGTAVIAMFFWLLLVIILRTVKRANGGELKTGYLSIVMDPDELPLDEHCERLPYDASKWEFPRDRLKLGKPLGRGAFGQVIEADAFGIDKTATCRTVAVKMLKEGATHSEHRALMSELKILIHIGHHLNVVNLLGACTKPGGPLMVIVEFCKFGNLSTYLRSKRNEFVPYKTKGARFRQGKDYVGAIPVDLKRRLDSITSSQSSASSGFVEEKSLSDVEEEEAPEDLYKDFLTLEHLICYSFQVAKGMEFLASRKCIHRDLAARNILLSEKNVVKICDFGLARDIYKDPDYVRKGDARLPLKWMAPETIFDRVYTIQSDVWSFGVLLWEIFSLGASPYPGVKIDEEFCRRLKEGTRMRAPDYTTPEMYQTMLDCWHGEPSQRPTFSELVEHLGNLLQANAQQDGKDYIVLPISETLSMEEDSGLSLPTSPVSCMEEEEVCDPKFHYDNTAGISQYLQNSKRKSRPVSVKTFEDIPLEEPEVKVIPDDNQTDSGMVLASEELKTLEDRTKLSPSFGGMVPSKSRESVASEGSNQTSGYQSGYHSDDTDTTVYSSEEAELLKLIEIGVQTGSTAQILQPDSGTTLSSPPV

VEGFR1 = VEGFR1 (Homo sapiens, UniProt P17948); assay: VEGFR1 Kinase; assay type: biochemical
Sequence of VEGFR1 (P17948 27-1338, species assumed): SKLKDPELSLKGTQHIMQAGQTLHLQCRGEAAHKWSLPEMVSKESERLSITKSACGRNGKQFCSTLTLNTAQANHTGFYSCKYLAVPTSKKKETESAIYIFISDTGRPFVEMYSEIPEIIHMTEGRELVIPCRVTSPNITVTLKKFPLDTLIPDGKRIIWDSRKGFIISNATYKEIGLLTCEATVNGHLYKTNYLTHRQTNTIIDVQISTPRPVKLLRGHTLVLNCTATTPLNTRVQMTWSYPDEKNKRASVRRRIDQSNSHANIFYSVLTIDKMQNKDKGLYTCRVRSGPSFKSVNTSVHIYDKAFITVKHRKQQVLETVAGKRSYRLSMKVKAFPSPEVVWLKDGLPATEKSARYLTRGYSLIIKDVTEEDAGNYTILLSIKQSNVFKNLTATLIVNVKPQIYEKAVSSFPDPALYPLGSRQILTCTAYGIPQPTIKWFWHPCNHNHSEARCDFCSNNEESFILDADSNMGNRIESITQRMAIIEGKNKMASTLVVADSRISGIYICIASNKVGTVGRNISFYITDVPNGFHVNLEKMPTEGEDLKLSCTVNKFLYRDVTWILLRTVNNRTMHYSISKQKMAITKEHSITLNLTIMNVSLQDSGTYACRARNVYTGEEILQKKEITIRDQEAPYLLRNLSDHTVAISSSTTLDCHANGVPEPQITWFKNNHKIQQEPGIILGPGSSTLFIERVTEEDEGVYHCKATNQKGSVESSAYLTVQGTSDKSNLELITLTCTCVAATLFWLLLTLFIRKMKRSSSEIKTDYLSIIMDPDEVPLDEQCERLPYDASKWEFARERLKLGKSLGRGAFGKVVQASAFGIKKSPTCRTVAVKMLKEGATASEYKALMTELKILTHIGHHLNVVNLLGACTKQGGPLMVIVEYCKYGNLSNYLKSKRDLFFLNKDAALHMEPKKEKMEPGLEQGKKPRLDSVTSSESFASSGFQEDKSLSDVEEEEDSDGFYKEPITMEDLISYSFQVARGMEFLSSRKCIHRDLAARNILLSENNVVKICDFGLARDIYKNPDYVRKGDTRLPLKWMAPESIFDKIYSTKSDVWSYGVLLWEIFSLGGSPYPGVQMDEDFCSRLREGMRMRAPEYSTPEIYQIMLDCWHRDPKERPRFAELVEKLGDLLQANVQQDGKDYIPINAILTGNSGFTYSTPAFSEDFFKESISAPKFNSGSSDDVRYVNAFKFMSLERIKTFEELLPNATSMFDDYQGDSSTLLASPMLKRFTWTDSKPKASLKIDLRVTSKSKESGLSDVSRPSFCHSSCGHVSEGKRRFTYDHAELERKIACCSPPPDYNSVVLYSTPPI

Row | IC50 (VEGFR2 [1]) [µM] | IC50 (PDGFRβ) [µM] | IC50 (VEGFR2 [2]) [µM] | IC50 (VEGFR1) [µM] | SMILES
1 | 0.01 | 0.01 | 0.003 |  | COC(=O)CCCCS(=O)(CCCCC(=O)OC)=NC(=O)c1cnc(N)c(C#Cc2cccc(NC(=O)c3cccc(C(F)(F)F)c3)c2)c1 [Example 5, Dimethyl 5,5′-[N-({6-amino-5-[(3-{[3-(trifluoromethyl)benzoyl]amino}phenyl)ethynyl]pyridin-3-yl}carbonyl)sulfonimidoyl]dipentanoate]
2 | 0.008 | 0.034 | 0.002 |  | COC(=O)CCCCS(=O)(CCCCC(=O)OC)=NC(=O)c1cnc(N)c(C#Cc2cccc(NC(=O)c3ccc(F)c(Cl)c3)c2)c1 [Example 4, Dimethyl 5,5′-(N-{[6-amino-5-({3-[(3-chloro-4-fluorobenzoyl)amino]phenyl}ethynyl)pyridin-3-yl]carbonyl}sulfonimidoyl)dipentanoate]
3 | 0.015 | 0.068 | 0.011 |  | COC(=O)CCCCS(=O)(CCCCC(=O)OC)=NC(=O)c1cnc(N)c(C#Cc2cccc(C(=O)Nc3ccc(F)c(Cl)c3)c2)c1 [Example 15, Dimethyl 5,5′-[N-({6-amino-5-[(3-{[(3-chloro-4-fluorophenyl)amino]carbonyl}phenyl)ethynyl]pyridin-3-yl}carbonyl)sulfonimidoyl]dipentanoate]
4 | 0.02 | 0.069 | 0.006 |  | COC(=O)CCCCS(=O)(CCCCC(=O)OC)=NC(=O)c1cnc(N)c(C#Cc2cccc(NC(=O)c3cc(C(F)(F)F)ccc3F)c2)c1 [Example 10, Dimethyl 5,5′-[N-({6-amino-5-[(3-{[2-fluoro-5-(trifluoromethyl)benzoyl]amino}phenyl)ethynyl]pyridin-3-yl}carbonyl)sulfonimidoyl]dipentanoate]
5 | 0.011 | 0.029 | 0.049 | 0.013 | COC(=O)CCCCS(=O)(CCCCC(=O)OC)=NC(=O)c1cnc(N)c(C#Cc2cccc(NC(=O)c3cc(C)ccc3F)c2)c1 [Example 7, Dimethyl 5,5′-(N-{[6-amino-5-({3-[(2-fluoro-5-methylbenzoyl)amino]phenyl}ethynyl)pyridin-3-yl]carbonyl}sulfonimidoyl)dipentanoate]
6 | 0.011 | 0.05 | < 0.001 | 0.014 | COC(=O)CCCCS(=O)(CCCCC(=O)OC)=NC(=O)c1cnc(N)c(C#Cc2cccc(C(=O)Nc3cc(C)ccc3F)c2)c1 [Example 14, Dimethyl 5,5′-[N-({6-amino-5-[(3-{[(2-fluoro-5-methylphenyl)amino]carbonyl}phenyl)ethynyl]pyridin-3-yl}carbonyl)sulfonimidoyl]dipentanoate]
7 | 0.028 | 0.02 |  | 0.027 | COC(=O)CCCCS(=O)(CCCCC(=O)OC)=NC(=O)c1cnc(N)c(C#Cc2cccc(C(=O)Nc3cc(C(C)(C)C)on3)c2)c1 [Example 16, Dimethyl 5,5′-[N-({6-amino-5-[(3-{[(5-tert-butylisoxazol-3-yl)amino]carbonyl}phenyl)ethynyl]pyridin-3-yl}carbonyl)sulfonimidoyl]dipentanoate]
8 | 0.009 | 0.038 | 0.005 |  | COC(=O)CCCCS(=O)(CCCCC(=O)OC)=NC(=O)c1cnc(N)c(C#Cc2cccc(C(=O)Nc3ccc(OC)c(Cl)c3)c2)c1 [Example 13, Dimethyl 5,5′-[N-({6-amino-5-[(3-{[(3-chloro-4-methoxyphenyl)amino]carbonyl}phenyl)ethynyl]pyridin-3-yl}carbonyl)sulfonimidoyl]dipentanoate]
9 | 0.01 |  | 0.023 |  | COC(=O)CCCCS(=O)(CCCCC(=O)OC)=NC(=O)c1cnc(N)c(C#Cc2cccc(NC(=O)Nc3cc(C)ccc3F)c2)c1 [Example 18, Dimethyl 5,5′-{N-[(6-amino-5-{[3-({[(2-fluoro-5-methylphenyl)amino]carbonyl}amino)phenyl]ethynyl}pyridin-3-yl)carbonyl]sulfonimidoyl}dipentanoate]
10 | 0.009 | 0.025 | < 0.001 |  | COC(=O)CCCCS(=O)(CCCCC(=O)OC)=NC(=O)c1cnc(N)c(C#Cc2cccc(NC(=O)c3cccc(C)c3)c2)c1 [Example 1, Dimethyl 5,5′-(N-{[6-amino-5-({3-[(3 methylbenzoyl)amino]phenyl}ethynyl)pyridin-3-yl]carbonyl}sulfonimidoyl)dipentanoate]
11 | 0.011 | 0.021 | 0.001 |  | COC(=O)CCCCS(=O)(CCCCC(=O)OC)=NC(=O)c1cnc(N)c(C#Cc2cccc(NC(=O)c3cccc(Cl)c3)c2)c1 [Example 6]
12 | 0.012 |  | 0.006 |  | COC(=O)CCCCS(=O)(CCCCC(=O)OC)=NC(=O)c1cnc(N)c(C#Cc2cccc(NC(=O)c3cccc([S+](C)[O-])c3)c2)c1 (centres unmarked) [Example 8, Dimethyl 5,5′-[N-({6-amino-5-[(3-{[3-(methylsulfinyl)benzoyl]amino}phenyl)ethynyl]pyridin-3-yl}carbonyl)sulfonimidoyl]dipentanoate]
13 | 0.005 |  | 0.004 |  | COC(=O)CCCCS(=O)(CCCCC(=O)OC)=NC(=O)c1cnc(N)c(C#Cc2cccc(NC(=O)c3cccc(SC)c3)c2)c1 [Example 3, Dimethyl 5,5′-[N-({6-amino-5-[(3-{[3-(methylthio)benzoyl]amino}phenyl)ethynyl]pyridin-3-yl}carbonyl)sulfonimidoyl]dipentanoate]
14 | 0.008 | 0.057 | 0.001 |  | COC(=O)CCCCS(=O)(CCCCC(=O)OC)=NC(=O)c1cnc(N)c(C#Cc2cccc(C(=O)Nc3cccc(C)c3)c2)c1 [Example 12, Dimethyl 5,5′-[N-({6-amino-5-[(3-{[(3-methylphenyl)amino]carbonyl}phenyl)ethynyl]pyridin-3-yl}carbonyl)sulfonimidoyl]dipentanoate]
15 | 0.037 | 0.036 |  | 0.032 | COC(=O)CCCCS(=O)(CCCCC(=O)OC)=NC(=O)c1cnc(N)c(C#Cc2cccc(C(=O)Nc3ccc(Cl)c(C(F)(F)F)c3)c2)c1 [Example 17, Dimethyl 5,5′-{N-[(6-amino-5-{[3-({[4-chloro-3-(trifluoromethyl)phenyl]amino}carbonyl)phenyl]ethynyl}pyridin-3-yl)carbonyl]sulfonimidoyl}dipentanoate]
16 | 0.004 | 0.038 | 0.002 |  | COC(=O)CCCCS(=O)(CCCCC(=O)OC)=NC(=O)c1cnc(N)c(C#Cc2cccc(C(=O)Nc3cccc(OC)c3)c2)c1 [Example 11, Dimethyl 5,5′-[N-({6-amino-5-[(3-{[(3-methoxyphenyl)amino]carbonyl}phenyl)ethynyl]pyridin-3-yl}carbonyl)sulfonimidoyl]dipentanoate]
